Reference: patent US4479942A, “Tetrahydrofurnancarboxylic acid derivatives, processes for preparation thereof and pharmaceutical compositions thereof” (Fujisawa Pharmaceutical Co., Ltd., priority 1981, dated 1984)
≈ marks a conversion by molar mass, not a printed value.

Tests used:
[1] = tested on: Candida albicans OUT6004; test: Antimicrobial activity test (in vitro), minimal inhibitory concentration against Candida, pulp assay method; assay type: cell-based; settings: malt agar
Excerpt: Antimicrobial activity test (in vitro):
Minimal inhibitory concentration (MIC) against Candida: (Candida albicans OUT6004)
Method: Pulp assay method

[2] = tested on: Candida albicans FP-622; test: Minimal inhibitory concentration against Candida albicans, agar dilution method (FP-622); assay type: cell-based; settings: FP622, malt agar
Excerpt: (§1) Antimicrobial activities of the compound in Example 98 [1-(6-amino-9H-purin-9-yl)-1,3-dideoxy-3-(O-methyl-L-tyrosylamino)-β- D-ribofuranuronic acid dihydrochloride monohydrate] against some species of Candida.
(§2) Minimal inhibitory concentration (MIC) against Candida albicans:
(§3) Method: Agar dilution method

[3] = tested on: Candida albicans FP-633; test: Protective efficacy in experimental infection in mice; assay type: in vivo, mice (ddY-strains); settings: one hour after i.v. infection, one week after infection
Excerpt: Protective efficacy in experimental infection in mice:
In determining the protective efficacy against experimental infections of Candida in mice, the compound in Example 98 [1-(6-amino-9H-purin-9-yl)-1,3-dideoxy-3-(O-methyl-L-tyrosylamino)-β- D-ribofuranuronic acid dihydrochloride monohydrate] was suspended and diluted in sterile water to provide three concentrations of the drug for testing ddY-strains of mice aged 5 weeks and averaging 20 g in weight. Mice were used in groups of 5 mice each. One hour after the intravenous injection of 3.0×10^6 of Candida albicans FP-633 cells to each mouse, the drug solutions were administered subcutaneously or orally at the level mentioned below respectively.
One week after the infection, the test was considered complete and survival records of that day were made.

[4] = tested on: Candida albicans FP-616; test: Minimal inhibitory concentration against Candida albicans, agar dilution method (FP-616); assay type: cell-based; settings: FP616, malt agar
Excerpt: as §1, §2, §3

[5] = Toxicity, intraperitoneal administration into mice; assay type: in vivo; settings: more than 1,000 mg/kg
[6] = tested on: Candida albicans FP-618; test: Minimal inhibitory concentration against Candida albicans, agar dilution method (FP-618); assay type: cell-based; settings: FP618, malt agar
Excerpt: as §1, §2, §3

[7] = tested on: Candida albicans FP-633; test: Minimal inhibitory concentration against Candida albicans, agar dilution method (FP-633); assay type: cell-based; settings: FP633, malt agar
Excerpt: as §1, §2, §3

[8] = Solubilities to various solvents
[9] = tested on: Candida albicans FP-614; test: Minimal inhibitory concentration against Candida albicans, agar dilution method (FP-614); assay type: cell-based; settings: FP614, malt agar
Excerpt: as §1, §2, §3

[10] = tested on: Candida albicans FP-620; test: Minimal inhibitory concentration against Candida albicans, agar dilution method (FP-620); assay type: cell-based; settings: FP620, malt agar
Excerpt: as §1, §2, §3

Q: Which MIC [1] does the source give for Nc1ncnc2c1ncn2[C@@H]1O[C@H](C(=O)O)[C@@H](NC(=O)C(N)Cc2ccc([N+](=O)[O-])cc2)[C@H]1O (mixture of isomers) [Example 73, 1-(6-Amino-9H-purin-9-yl)-1,3-dideoxy-3-[β-(4-nitrophenyl)-D,L-alanylamino]-β-D-ribofuranuronic acid] here?
A: 31 µg/mL

Q: For Nc1ncnc2c1ncn2[C@@H]1O[C@H](C(=O)O)[C@@H](NC(=O)[C@@H](N)Cc2ccccc2)[C@H]1O [Example 39, 1-(6-amino-9H-purin-9-yl)-1,3-dideoxy-3-(L-phenylalanylamino)-β-D-ribofuranuronic acid], which MIC [1] is on record?
A: 31 µg/mL (≈ 72.5 µM)

Q: For COc1ccc(C[C@H](N)C(=O)N[C@H]2[C@@H](O)[C@H](n3cnc4c(N)ncnc43)O[C@@H]2C(=O)NCC(=O)O)cc1 [Example 55, N-Carboxymethyl-1-(6-amino-9H-purin-9-yl)-1,3-dideoxy-3-(O-methyl-L-tyrosylamino)-β-D-ribofuranuronamide], which MIC [1] is on record?
A: 31 µg/mL (≈ 60.3 µM)

Q: With COc1ccc(C[C@H](N)C(=O)N[C@H]2[C@@H](O)[C@H](n3cnc4c(N)ncnc43)O[C@@H]2C(=O)O)cc1.Cl.Cl.O [Example 98, 1-(6-Amino-9H-purin-9-yl)-1,3-dideoxy-3-(O-methyl-L-tyrosylamino)-β-D-ribofuranuronic acid dihydrochloride monohydrate] as the compound, how does the MIC [2] read?
A: 3.1 µg/mL

Q: What about the Survival/infected ([3]; oral, 10 mg/kg) of the same compound?
A: 1/5

Q: And the Survival/infected ([3]; oral, 30 mg/kg)?
A: 3/5

Q: And the Survival/infected ([3]; subcutaneous, 5 mg/kg)?
A: 1/5

Q: What about the Survival/infected ([3]; subcutaneous, 15 mg/kg) of the same compound?
A: 4/5

Q: And the MIC [4]?
A: 0.2 µg/mL

Q: What about the Toxic symptom [5] of the same compound?
A: did not result in any toxic symtom

Q: And the MIC [1]?
A: 16 µg/mL

Q: What about the MIC [6] of the same compound?
A: 0.8 µg/mL

Q: And the MIC [7]?
A: 1.6 µg/mL

Q: What about the Solubility ([8]; acetone) of the same compound?
A: Insoluble

Q: What about the Solubility ([8]; chloroform) of the same compound?
A: Insoluble

Q: And the Solubility ([8]; ethyl acetate)?
A: Insoluble

Q: What about the Solubility ([8]; methanol) of the same compound?
A: Slightly soluble

Q: And the Solubility ([8]; water)?
A: Slightly soluble

Q: And the MIC [9]?
A: 0.8 µg/mL

Q: What about the MIC [10] of the same compound?
A: 0.2 µg/mL
